Results published in patent US20260027116A1, “Methods of Treating Chronic Graft-Versus-Host Disease Following Allogeneic Hematopoietic Stem Cell Transplantation” (Kadmon Corporation, LLC, priority 2022, published 2026).

Tests used:
cGVHD symptoms = test: Example 1: symptom activity by cGVHD Activity Assessment participant self-report; format: in vivo, human
Text: Number of Participants With Maximal Improvement From Baseline in Symptom Activity by cGVHD Activity Assessment Participant Self-Report. cGVHD symptom severity was self-reported by participants. Participants were asked to rate their disease symptom severity over the last week on the following questions: skin itching at its worst, moth dryness at its worst, mouth pain at its worst, mouth sensitivity at its worst, main compliant on eyes, symptom severity on eyes. The severity rating was done on a 0 to 10-point numeric rating scare, where score 0 indicated ‘not at all severe cGVHD symptoms’ and score 10 indicated ‘most severe cGVHD symptoms possible’. EOT visit was performed within 3 days after the participant's last dose of study drug. Baseline value was defined as valid and last non-missing value obtained within 28 days prior to participant receiving first study medication. […] Analysis was performed on mITT population.

CYP2C19 = CYP2C19 (Homo sapiens, UniProt P33261); test: enzyme inhibition in vitro; format: in vitro ADME
CYP2D6 = CYP2D6 (Homo sapiens, UniProt P10635); test: enzyme inhibition in vitro; format: in vitro ADME
UGT1A9 = biological target: T1, UGT1A9 (Homo sapiens, UniProt O60656); test: metabolism in vitro; format: in vitro ADME
T1 sequence (O60656 26-530): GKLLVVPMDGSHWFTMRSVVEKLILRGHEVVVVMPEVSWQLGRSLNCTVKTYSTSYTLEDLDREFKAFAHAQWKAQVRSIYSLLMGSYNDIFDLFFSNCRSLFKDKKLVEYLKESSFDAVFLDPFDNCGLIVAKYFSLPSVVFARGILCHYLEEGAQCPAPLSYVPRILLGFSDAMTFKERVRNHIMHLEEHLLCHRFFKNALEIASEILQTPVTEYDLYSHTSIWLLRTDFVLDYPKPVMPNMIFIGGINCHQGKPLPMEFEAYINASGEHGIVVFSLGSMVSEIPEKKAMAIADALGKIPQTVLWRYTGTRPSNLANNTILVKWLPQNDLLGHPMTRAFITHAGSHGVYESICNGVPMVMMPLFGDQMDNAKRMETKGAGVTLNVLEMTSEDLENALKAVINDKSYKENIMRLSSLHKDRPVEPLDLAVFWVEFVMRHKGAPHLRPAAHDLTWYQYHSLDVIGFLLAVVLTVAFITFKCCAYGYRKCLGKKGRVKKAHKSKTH

CYP1A2 = biological target: T2, CYP1A2 (Homo sapiens, UniProt P05177); test: enzyme inhibition in vitro; format: in vitro ADME
T2 sequence (P05177 1-516): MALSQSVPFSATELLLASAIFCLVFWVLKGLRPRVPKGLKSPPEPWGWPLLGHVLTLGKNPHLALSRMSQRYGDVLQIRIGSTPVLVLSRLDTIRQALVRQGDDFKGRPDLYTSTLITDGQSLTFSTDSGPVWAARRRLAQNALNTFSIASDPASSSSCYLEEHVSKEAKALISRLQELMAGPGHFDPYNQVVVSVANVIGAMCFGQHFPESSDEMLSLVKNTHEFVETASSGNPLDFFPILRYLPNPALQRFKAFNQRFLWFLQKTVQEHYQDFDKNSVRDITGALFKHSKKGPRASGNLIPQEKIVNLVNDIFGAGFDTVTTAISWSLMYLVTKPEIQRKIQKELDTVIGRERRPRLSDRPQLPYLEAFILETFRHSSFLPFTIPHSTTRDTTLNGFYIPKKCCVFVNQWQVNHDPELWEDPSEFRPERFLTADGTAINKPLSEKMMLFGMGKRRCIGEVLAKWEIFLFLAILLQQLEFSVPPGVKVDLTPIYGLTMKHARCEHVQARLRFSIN

human serum albumin = human serum albumin (Homo sapiens, UniProt P02768); test: protein binding in vitro; format: in vitro ADME
human serum albumin, sequence (P02768 25-609): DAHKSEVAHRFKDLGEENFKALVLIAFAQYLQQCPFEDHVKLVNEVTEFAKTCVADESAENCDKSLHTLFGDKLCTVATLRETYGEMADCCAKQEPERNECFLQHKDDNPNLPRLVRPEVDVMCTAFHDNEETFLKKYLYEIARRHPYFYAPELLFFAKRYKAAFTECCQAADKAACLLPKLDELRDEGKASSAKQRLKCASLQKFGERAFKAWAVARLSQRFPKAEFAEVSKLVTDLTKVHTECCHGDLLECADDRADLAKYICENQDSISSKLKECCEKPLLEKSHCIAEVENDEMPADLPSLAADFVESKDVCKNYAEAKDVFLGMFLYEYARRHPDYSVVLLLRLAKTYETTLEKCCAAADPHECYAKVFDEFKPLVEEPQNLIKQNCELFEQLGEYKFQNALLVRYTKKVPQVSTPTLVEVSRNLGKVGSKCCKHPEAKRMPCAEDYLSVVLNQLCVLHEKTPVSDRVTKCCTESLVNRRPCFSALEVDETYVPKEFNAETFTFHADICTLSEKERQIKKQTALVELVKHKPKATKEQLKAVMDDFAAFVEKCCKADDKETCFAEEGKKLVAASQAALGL

CYP2D6, sequence (P10635 whole entry): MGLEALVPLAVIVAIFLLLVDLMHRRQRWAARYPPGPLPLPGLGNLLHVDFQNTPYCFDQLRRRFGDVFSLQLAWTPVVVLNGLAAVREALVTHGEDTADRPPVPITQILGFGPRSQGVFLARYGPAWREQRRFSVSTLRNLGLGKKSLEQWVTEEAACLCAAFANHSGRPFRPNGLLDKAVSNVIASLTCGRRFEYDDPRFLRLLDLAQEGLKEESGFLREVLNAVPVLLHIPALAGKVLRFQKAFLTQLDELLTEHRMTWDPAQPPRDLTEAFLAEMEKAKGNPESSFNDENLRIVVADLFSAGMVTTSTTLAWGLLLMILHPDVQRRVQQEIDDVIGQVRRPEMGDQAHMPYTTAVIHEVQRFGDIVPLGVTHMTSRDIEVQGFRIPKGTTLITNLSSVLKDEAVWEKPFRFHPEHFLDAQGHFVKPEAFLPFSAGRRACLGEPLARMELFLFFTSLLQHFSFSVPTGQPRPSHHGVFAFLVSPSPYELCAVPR
CYP2C19, sequence (P33261 whole entry): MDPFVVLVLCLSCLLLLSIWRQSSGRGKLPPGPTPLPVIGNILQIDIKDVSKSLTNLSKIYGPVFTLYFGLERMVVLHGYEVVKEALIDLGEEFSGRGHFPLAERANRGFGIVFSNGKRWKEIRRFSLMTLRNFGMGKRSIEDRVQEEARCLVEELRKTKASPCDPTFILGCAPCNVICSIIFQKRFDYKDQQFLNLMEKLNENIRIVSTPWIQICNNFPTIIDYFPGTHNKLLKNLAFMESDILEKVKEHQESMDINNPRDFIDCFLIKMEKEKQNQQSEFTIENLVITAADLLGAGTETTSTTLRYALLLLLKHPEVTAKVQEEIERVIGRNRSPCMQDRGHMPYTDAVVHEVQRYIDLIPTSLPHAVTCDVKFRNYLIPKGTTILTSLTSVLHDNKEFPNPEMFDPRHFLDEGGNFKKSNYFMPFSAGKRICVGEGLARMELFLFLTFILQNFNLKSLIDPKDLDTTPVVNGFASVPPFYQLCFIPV

## CC(C)NC(=O)COc1cccc(-c2nc(Nc3ccc4[nH]ncc4c3)c3ccccc3n2)c1 [Belumosudil, 2-{3-[4-(1H-indazol-5-ylamino)-2-quinazolinyl]phenoxy}-N-(propan-2-yl) acetamide]
cGVHD symptoms; Cohort 1 200 mg QD
  self-reported symptom activity maximal improvement 0, participants (%): 1 (6%) participants
  self-reported symptom activity maximal improvement 1, participants (%): 0 (0%) participants
  self-reported symptom activity maximal improvement 2, participants (%): 0 (0%) participants
  self-reported symptom activity maximal improvement 4, participants (%): 1 (6%) participants
  self-reported symptom activity maximal improvement from baseline −8, participants (%): 0 (0%) participants
  self-reported symptom activity maximal improvement −1, participants (%): 2 (12%) participants
  self-reported symptom activity maximal improvement −2, participants (%): 2 (12%) participants
  self-reported symptom activity maximal improvement −3, participants (%): 2 (12%) participants
  self-reported symptom activity maximal improvement −4, participants (%): 2 (12%) participants
  self-reported symptom activity maximal improvement −5, participants (%): 2 (12%) participants
  self-reported symptom activity maximal improvement −6, participants (%): 0 (0%) participants
  self-reported symptom activity maximal improvement −7, participants (%): 3 (18%) participants
cGVHD symptoms; Cohort 2 200 mg BID
  self-reported symptom activity maximal improvement 0, participants (%): 1 (6%) participants
  self-reported symptom activity maximal improvement 1, participants (%): 0 (0%) participants
  self-reported symptom activity maximal improvement 2, participants (%): 1 (6%) participants
  self-reported symptom activity maximal improvement 4, participants (%): 0 (0%) participants
  self-reported symptom activity maximal improvement from baseline −8, participants (%): 0 (0%) participants
  self-reported symptom activity maximal improvement −1, participants (%): 2 (13%) participants
  self-reported symptom activity maximal improvement −2, participants (%): 3 (19%) participants
  self-reported symptom activity maximal improvement −3, participants (%): 2 (13%) participants
  self-reported symptom activity maximal improvement −4, participants (%): 2 (13%) participants
  self-reported symptom activity maximal improvement −5, participants (%): 0 (0%) participants
  self-reported symptom activity maximal improvement −6, participants (%): 1 (6%) participants
  self-reported symptom activity maximal improvement −7, participants (%): 2 (13%) participants
cGVHD symptoms; Cohort 3 400 mg QD
  self-reported symptom activity maximal improvement 0, participants (%): 0 (0%) participants
  self-reported symptom activity maximal improvement 1, participants (%): 1 (5%) participants
  self-reported symptom activity maximal improvement 2, participants (%): 2 (10%) participants
  self-reported symptom activity maximal improvement 4, participants (%): 0 (0%) participants
  self-reported symptom activity maximal improvement from baseline −8, participants (%): 1 (5%) participants
  self-reported symptom activity maximal improvement −1, participants (%): 2 (10%) participants
  self-reported symptom activity maximal improvement −2, participants (%): 2 (10%) participants
  self-reported symptom activity maximal improvement −3, participants (%): 2 (10%) participants
  self-reported symptom activity maximal improvement −4, participants (%): 1 (5%) participants
  self-reported symptom activity maximal improvement −5, participants (%): 2 (10%) participants
  self-reported symptom activity maximal improvement −6, participants (%): 4 (19%) participants
  self-reported symptom activity maximal improvement −7, participants (%): 0 (0%) participants
CYP2C19
  inhibition of CYP2C19: inhibitor
CYP2D6
  inhibition of CYP2D6: inhibitor
UGT1A9
  metabolism by UGT1A9: to a lesser extent
CYP1A2
  inhibition of CYP1A2: inhibitor
Human serum albumin
  binding to human serum albumin: 99.9%
